Consider twelve compounds from patent US9908863B2, “Piperidinylcarbazoles” (Merck Patent GmbH, priority 2013, dated 2018).

Counter-ions that a name gives are not always drawn. Like-named read-outs stand apart in the source and are kept apart here.

The test system of this experiment is Chloroquine/Pyrimethamine resistant Plasmodium falciparum K1. Briefly: In vitro sensitivity assay: Plasmodium falciparum by 3H-hypoxanthine incorporation. The experiment is classed as cell-based. The note with it: read-out: IC50 K1 in vitro. The protocol: Biological Test 1: In Vitro Sensitivity Assays: Plasmodium falciparum by ^3H-Hypoxanthine Incorporation.
The strain used for this assay is the Chloroquine/Pyrimethamine resistant Plasmodium falciparum K1 and drugs such as Chloroquine (10 mg/mL stock; start concentration 1000 ng/mL) and Artemisinine (Qinghaosu) (5 mg/mL stock; start concentration 10 ng/mL) were used as standards. Human red blood cells were used as host cells and the activity was measured using a ^3H-hypoxanthine incorporation assay.
Into a Costar™ 96-well microtitre plates, 100 μL of medium (RPMI 1640 without hypoxanthine 10.44 g/L, HEPES 5.94 g/L, Albumax® 5 g/L, Neomycin 10 mL/L, NaHCO3 2.1 g/L) were added to the wells of row containing drugs available from stock solutions of 10 mg/mL in DMSO (compounds were kept at −20° C. Since DMSO is toxic, care had to be taken not to exceed a final concentration of 0.5% DMSO). Then 100 μL of medium were added at rt to all wells of the plate. By means of a 12-well multi-pipette serial drug dilutions were prepared. A serial dilution factor of 1:2 is thus obtained. One row of wells without drugs served as controls. Next 100 μL of medium+washed human red blood cells A+(RBC) was added to the last 4 wells of the first row; these columns serve as background controls (that may be caused by 3H-hypoxanthine incorporation into RBC without the parasite). Into the remaining wells, 100 μL of medium+RBC+P. falciparum mix was added. The plates were placed for 48 h into a chamber at 37° C. gassed with a 4% CO2, 3% O2, 93% N2 mix. Finally 50 μL of medium+3H-hypoxanthine [(500 μL ^3H-hypoxanthine stock+500 μL EtOH+49 mL medium (0.5 μCi)] was added to each well and the plates were put back at 37° C. for 24 h into the chamber and gassed with a 4% CO2, 3% O2, 93% N2 mix. The plates were then read using the Cell Harvester and the data were transferred into a graphic program (Excel) and are evaluated to determine the IC50 by linear interpolation.

Where [1] appears, read: Erythrocyte, P. falciparum K1 strain in human red blood cells, 3H-hypoxanthine incorporation.

`O[C@@H]1CNCC[C@H]1n1c2ccccc2c2ccccc21` [Compound 15, (3R,4R)-4-Carbazol-9-yl-piperidin-3-ol hydrochloride salt]: where the note is “K1, Erythrocyte”, the half-inhibitory concentration (IC50) is 383 nM.
`O[C@H]1CNCC[C@@H]1n1c2ccccc2c2ccccc21` [Compound 16, (3S,4S)-4-Carbazol-9-yl-piperidin-3-ol hydrochloride salt]: the IC50 (K1, Erythrocyte) was found to be 364 nM.
With `O[C@@H]1CNCC[C@H]1n1c2ccc(F)cc2c2cc(F)ccc21` [Compound 10, (3R,4R)-4-(3,6-Difluoro-carbazol-9-yl)-piperidin-3-ol hydrochloride salt], the IC50 (K1, Erythrocyte) turned out to be 33 nM.
The same measure, in the same setting: the same measure for `Fc1ccc2c(c1)c1cc(Cl)ccc1n2[C@@H]1CCNC[C@@H]1F` [Compound 12, 3-Chloro-6-fluoro-9-((3S,4R)-3-fluoro-piperidin-4-yl)-9H-carbazole hydrochloride salt]: 3670 nM.
`CC(C)(C)OC(=O)N1CC[C@@H](O)[C@H](n2c3ccc(F)cc3c3cc(Cl)ccc32)C1` (racemic) [Compound 2, trans-3-(3-Chloro-6-fluoro-carbazol-9-yl)-4-hydroxy-piperidine-1-carboxylic acid tert-butyl ester]: the IC50 under setting [1] was 127 nM.
As to `O[C@H]1CNCC[C@@H]1n1c2ccc(F)cc2c2cc(Cl)ccc21` [Compound 3, (3S,4S)-4-(3-Chloro-6-fluoro-carbazol-9-yl)-piperidin-3-ol hydrochloride salt], the IC50 (K1, Erythrocyte) stood at 3 nM.
Turning to `Fc1ccc2c(c1)c1cc(Cl)ccc1n2[C@H]1CCNC[C@H]1F` [Compound 13, 3-Chloro-6-fluoro-9-((3R,4S)-3-fluoro-piperidin-4-yl)-9H-carbazole hydrochloride salt], the IC50 (K1, Erythrocyte) was 886 nM.
The same measure, in the same setting: then `F[C@@H]1CNCC[C@@H]1n1c2ccc(Cl)cc2c2cc(Cl)ccc21` [Compound 11, 3,6-Dichloro-9-((3R,4S)-3-fluoro-piperidin-4-yl)-9H-carbazole hydrochloride salt], with 1150 nM; and `O[C@@H]1CNCC[C@H]1n1c2ccc(F)cc2c2cc(Cl)ccc21` [Compound 4, (3R,4R)-4-(3-Chloro-6-fluoro-carbazol-9-yl)-piperidin-3-ol hydrochloride salt], with 3 nM.
Turning to `CC(C)(C)OC(=O)N1CC[C@H](n2c3ccc(F)cc3c3cc(Cl)ccc32)[C@@H](O)C1` (racemic) [Compound 1, trans-4-(3-Chloro-6-fluoro-carbazol-9-yl)-3-hydroxy-piperidine-1-carboxylic acid tert-butyl ester], under setting [1], the half-maximal inhibitory concentration (IC50) came out at 315 nM.
Still for that read-out and setting: the same measure for `O[C@H]1CCN(C2CCCCC2)C[C@@H]1n1c2ccc(Cl)cc2c2cc(Cl)ccc21` (racemic) [Compound 14]: 13 nM; for `O[C@H]1CCNC[C@@H]1n1c2ccc(Cl)cc2c2cc(Cl)ccc21` (racemic) [Compound 8, trans-3-(3,6-dichloro-9H-carbazol-9-yl)piperidin-4-ol]: 781 nM.

Usually IC50 stands for the concentration at which inhibition is half-maximal.
